21 molecules from patent US20240182445A1 (ONO PHARMACEUTICAL CO., LTD., priority 2019, published 2024) can be followed below.

pIC50: −log10 of the molar value.

One experiment concerns the target T1, human TREK-1 (Homo sapiens, UniProt O95069).
T1 construct: expressed in transfected cells
T1 sequence (O95069 1-426): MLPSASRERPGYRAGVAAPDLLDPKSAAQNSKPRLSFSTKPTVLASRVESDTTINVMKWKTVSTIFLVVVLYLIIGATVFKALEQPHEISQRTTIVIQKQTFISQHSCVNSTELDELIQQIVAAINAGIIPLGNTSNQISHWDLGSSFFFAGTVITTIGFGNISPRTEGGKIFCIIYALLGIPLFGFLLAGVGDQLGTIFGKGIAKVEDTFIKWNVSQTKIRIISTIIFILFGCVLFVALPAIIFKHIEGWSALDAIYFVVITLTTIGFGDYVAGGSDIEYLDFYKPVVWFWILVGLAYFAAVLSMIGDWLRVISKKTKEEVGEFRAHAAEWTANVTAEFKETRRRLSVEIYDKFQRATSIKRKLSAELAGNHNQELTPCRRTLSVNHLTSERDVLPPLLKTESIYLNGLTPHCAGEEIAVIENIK
Description: TREK-1 Thallium (Tl+) flux assay, Method 1. Format: cell-based. The note with it: TREK-1 Thallium (Tl+) flux assay, Method 1. As for the experimental part: The term “thallium flux assay” herein refers to a fluorescence-based assay used to monitor the activity of TREK channels. Thallium is a congener of potassium that readily fluxes through the pore of TREK channels. Thallium flux is measured using a commercially available, thallium-sensitive fluorescent dye called Thallos. The detail method is described below.
CHO-K1 cells stably expressing human TREK-1 were plated in 384-well plates, cultured overnight, loaded with Thallos dye the following day. Test compounds or control compound (tert-butyl (3-((4-(benzyloxy)-2-methylphenyl)carbamoyl)-4-chlorophenyl)carbamate) or 0.3% DMSO (vehicle control) which were prepared on separate plates were added to the cell plates and incubated for 10 min, and then the cells were treated with thallium stimulus buffer to initiate thallium flux. To measure the efficacy and potency of test compounds, the change in fluorescence intensity (ΔRatio) and % inhibition were calculated using the following equations:
ΔRatio=(fluorescence intensity at 25 seconds after thallium addition)/(average of fluorescent intensity before thallium addition)
What is called pIC50 is −log10 of the IC50, conventionally taken in molar units. As to `Cc1cc(OCc2ccccc2)ccc1NC(=O)c1c(Cl)cnn1[C@H]1CC[C@@H](NC(=O)OC(C)(C)C)CC1` [Compound 404, tert-butyl (cis-4-(5-((4-(benzyloxy)-2-methylphenyl)carbamoyl)-4-chloro-1H-pyrazol-1-yl)cyclohexyl)carbamate], the pIC50 was 5.64.

The same experiment, now with this note: TREK-1 Thallium (Tl+) flux assay; no *^12 (Method 2) mark on these rows.
For the molecule `Cc1cc(-c2cnn(-c3ccc(F)cc3)c2)cnc1NC(=O)c1c(Cl)cnn1C1CCOCC1` [Compound 381, 4-chloro-N-(5-(1-(4-fluorophenyl)-1H-pyrazol-4-yl)-3-methylpyridin-2-yl)-1-(tetrahydro-2H-pyran-4-yl)-1H-pyrazole-5-carboxamide], the negative-log IC50 (pIC50) was 6.22.
The same measure, in the same setting: for `O=C(Nc1ncc(C#Cc2cccs2)cc1F)c1c(Cl)cnn1CCC1CCN(C(=O)C2COCCO2)CC1` (stereo not drawn) [Compound 206, 1-(2-(1-(1,4-dioxane-2-carbonyl)piperidin-4-yl)ethyl)-4-chloro-N-(3-fluoro-5-(thiophen-2-ylethynyl)pyridin-2-yl)-1H-pyrazole-5-carboxamide] the value was 6.51; for `CC(C)(C)OC(=O)N1CCCC(n2ncc(Cl)c2C(=O)Nc2ncc(C#Cc3ccccc3)cc2F)CC1` (stereo not drawn) [Compound 225, tert-butyl 4-(4-chloro-5-((3-fluoro-5-(phenylethynyl)pyridin-2-yl)carbamoyl)-1H-pyrazol-1-yl)azepane-1-carboxylate], 6.46.
Still for that read-out and setting: for `Cc1cc(C#Cc2ccccc2)cnc1NC(=O)c1c(Cl)cnn1CCC1CCCO1` (stereo not drawn) [Compound 321, 4-chloro-N-(3-methyl-5-(phenylethynyl)pyridin-2-yl)-1-(2-(tetrahydrofuran-2-yl)ethyl)-1H-pyrazole-5-carboxamide] the value was 6.20; for `CC(C)(C)OC(=O)N1CC[C@H](n2ncc(Cl)c2C(=O)Nc2ncc(C#Cc3ccccc3)cc2F)C1` [Compound 315, tert-butyl (S)-3-(4-chloro-5-((3-fluoro-5-(phenylethynyl)pyridin-2-yl)carbamoyl)-1H-pyrazol-1-yl)pyrrolidine-1-carboxylate], 6.22.
As to `Cc1cc(C#Cc2ccc(F)cc2)cnc1NC(=O)c1c(Cl)cnn1CC1(F)CCN(C(=O)C2CC2)CC1` [Compound 302, 4-chloro-1-((1-(cyclopropanecarbonyl)-4-fluoropiperidin-4-yl)methyl)-N-(5-((4-fluorophenyl)ethynyl)-3-methylpyridin-2-yl)-1H-pyrazole-5-carboxamide], the pIC50 is 6.26.
For `Cc1cc(C#Cc2cccc(F)c2)cnc1NC(=O)c1c(Cl)cnn1CC1CCN(C(=O)C(C)C)CC1` [Compound 249, 4-chloro-N-(5-((3-fluorophenyl)ethynyl)-3-methylpyridin-2-yl)-1-((1-isobutyrylpiperidin-4-yl)methyl)-1H-pyrazole-5-carboxamide], the pIC50 is 6.40.
Molecule `CC(C)(C#N)Cn1ncc(Cl)c1C(=O)Nc1ncc(C#Cc2ccccc2)cc1F` [Compound 234, 4-chloro-1-(2-cyano-2-methylpropyl)-N-(3-fluoro-5-(phenylethynyl)pyridin-2-yl)-1H-pyrazole-5-carboxamide] gave a negative logarithm of the IC50 (pIC50) of 6.44.
The same measure, in the same setting: for `Cc1cc(C#Cc2ccccc2)cnc1NC(=O)c1c(Cl)cnn1C1CCN(C(=O)OC(C)(C)C)C1` (stereo not drawn) [Compound 307, tert-butyl 3-(4-chloro-5-((3-methyl-5-(phenylethynyl)pyridin-2-yl)carbamoyl)-1H-pyrazol-1-yl)pyrrolidine-1-carboxylate] the value was 6.24; for `N#CCCCn1ncc(Cl)c1C(=O)Nc1c(F)cc(C#Cc2ccccc2)cc1F` [Compound 253, 4-chloro-1-(3-cyanopropyl)-N-(2,6-difluoro-4-(phenylethynyl)phenyl)-1H-pyrazole-5-carboxamide], 6.39.
The molecule `COc1ccc(-c2cnc(NC(=O)c3c(Cl)cnn3C3CCN(C(=O)OC(C)(C)C)CC3)c(C)c2)cc1OC` [Compound 384, tert-butyl 4-(4-chloro-5-((5-(3,4-dimethoxyphenyl)-3-methylpyridin-2-yl)carbamoyl)-1H-pyrazol-1-yl)piperidine-1-carboxylate] had a pIC50 of 6.13.
The same measure, in the same setting: under `Cc1cc(C#Cc2ccccc2)cnc1NC(=O)c1c(Cl)cnn1CC1CC(C)OC(C)C1` (stereo not drawn) [Compound 340, 4-chloro-1-((2,6-dimethyltetrahydro-2H-pyran-4-yl)methyl)-N-(3-methyl-5-(phenylethynyl)pyridin-2-yl)-1H-pyrazole-5-carboxamide] stands 6.13; under `CC(C)(C)OC(=O)N1CCC(n2ncc(Cl)c2C(=O)Nc2ncc(C#Cc3ccccc3)cc2F)C1` (stereo not drawn) [Compound 237, tert-butyl 3-(4-chloro-5-((3-fluoro-5-(phenylethynyl)pyridin-2-yl)carbamoyl)-1H-pyrazol-1-yl)pyrrolidine-1-carboxylate], 6.43.

Still in this experiment, the particulars now being: TREK-1 Thallium (Tl+) flux assay; values without footnote *12 are Method 1.
In turn, `CC(=O)N1CC[C@@H](Cn2ncc(Cl)c2C(=O)Nc2ncc(C#Cc3ccccc3)cc2F)[C@H](F)C1` [Compound 178, 1-(((3S,4S)-1-acetyl-3-fluoropiperidin-4-yl)methyl)-4-chloro-N-(3-fluoro-5-(phenylethynyl)pyridin-2-yl)-1H-pyrazole-5-carboxamide] gave a pIC50 of 6.57.
The same measure, in the same setting: under `Cc1cc(C#Cc2ccc(F)cc2)cnc1NC(=O)c1c(Cl)cnn1[C@H]1CC[C@@H](NC(=O)C2CC2)CC1` [Compound 165, 4-chloro-1-(cis-4-(cyclopropanecarboxamido)cyclohexyl)-N-(5-((4-fluorophenyl)ethynyl)-3-methylpyridin-2-yl)-1H-pyrazole-5-carboxamide] stands 6.59; under `Cc1cc(C#Cc2ccccc2)cnc1NC(=O)c1c(Cl)cnn1C1CN(C(=O)C2COCCO2)C1` (stereo not drawn) [Compound 81, 1-(1-(1,4-dioxane-2-carbonyl)azetidin-3-yl)-4-chloro-N-(3-methyl-5-(phenylethynyl)pyridin-2-yl)-1H-pyrazole-5-carboxamide], 6.80.
As for `Cc1cc(C#Cc2ccccc2)cc(F)c1NC(=O)c1c(Cl)cnn1CCCC#N` [Compound 185, 4-chloro-1-(3-cyanopropyl)-N-(2-fluoro-6-methyl-4-(phenylethynyl)phenyl)-1H-pyrazole-5-carboxamide], the pIC50 was 6.54.
Turning to `CC(=O)N1CCC(n2ncc(Cl)c2C(=O)Nc2ncc(C#Cc3cccc(F)c3)cc2C)CC1C` (stereo not drawn) [Compound 72, 1-(1-acetyl-2-methylpiperidin-4-yl)-4-chloro-N-(5-((3-fluorophenyl)ethynyl)-3-methylpyridin-2-yl)-1H-pyrazole-5-carboxamide], the pIC50 is 6.80.
Same read-out and setting: for `Cc1cc(C#Cc2ccccc2)cnc1NC(=O)c1c(Cl)cnn1C1CCN(C(=O)C2CC2)C1` (stereo not drawn) [Compound 79, 4-chloro-1-(1-(cyclopropanecarbonyl)pyrrolidin-3-yl)-N-(3-methyl-5-(phenylethynyl)pyridin-2-yl)-1H-pyrazole-5-carboxamide] the value was 6.80; for `CC(=O)N1CCC(n2ncc(Cl)c2C(=O)Nc2ncc(C#Cc3cccc(F)c3)cc2C)CC1` [Compound 71, 1-(1-acetylpiperidin-4-yl)-4-chloro-N-(5-((3-fluorophenyl)ethynyl)-3-methylpyridin-2-yl)-1H-pyrazole-5-carboxamide], 6.80.
